Tests used:
Assay type in all cases: binding
[1] = molecular target: T1, N-terminal CRD of hGalectin-4 (Gal-4N) (Homo sapiens, UniProt P56470); test: 1H Saturation Transfer Difference (STD) NMR epitope mapping
T1 construct: N-terminal CRD of hGalectin-4 (amino acids 1–150, including an additional C-terminus His-Tag); His-Tag (C, cleaved yes); made in house; host or cells: E. coli BL21 (pET29b)
T1 sequence (P56470 1-150): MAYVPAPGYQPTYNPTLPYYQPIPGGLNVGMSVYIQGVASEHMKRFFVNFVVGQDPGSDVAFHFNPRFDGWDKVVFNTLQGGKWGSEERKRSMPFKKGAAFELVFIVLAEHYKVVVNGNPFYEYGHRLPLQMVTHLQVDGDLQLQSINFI
Method: ^1H-saturation transfer difference NMR spectra were acquired for mixtures of Gal-4N (50 μM) with a 50-fold excess of ligand. Protein aromatic irradiation afforded the best STD intensities and thus these are discussed henceforth. The STD NMR spectra were very similar among the different ligands with respect to both the observed glycan protons and their intensities. […] Severe proton overlapping precluded a full comparison among ligands, but key isolated ^1H NMR resonance signals permitted to highlight evident differences.
All the STD NMR experiments were performed using an 800 MHz Bruker spectrometer with a cryoprobe (Bruker, Billerica, MA, United States). The samples were prepared in the corresponding deuterated buffer. The temperature was 288 K for every experiment. An amount of 50 μM of the lectin with 50 equivalents of the ligand was employed for every experiment except for lactose, for which a 1:70 ratio was used. The STD spectra were acquired with 1,024 scans, 2 s of saturation time using a train of 50 ms Gaussian-shaped pulses, and 3 s of relaxation delay. The spin-lock filter applied to remove the signals of the lectin was set at 40 ms. The on-resonance frequency was set for the aromatic region at 6.58 ppm, while the off-resonance frequency was set at 100 ppm.
Supplementary Table S1. Relative STD-AF (Amplification factor) and STD percentage of each non overlapping proton of each ligand.

[2] = molecular target: T1, N-terminal CRD of hGalectin-4 (Gal-4N); test: Isothermal titration calorimetry (ITC); conditions: for Kd: PBS pH 7.4, single binding site model
Method: Isothermal titration calorimetry experiments were performed using the MicroCal PEAQ-ITC calorimeter (Malvern Panalytical, Malvern, United Kingdom). Samples containing 100–200 μM of Gal-4N in PBS (50 mM sodium phosphate, pH 7.4, 300 mM NaCl) were titrated with stocks of 3–10 mM in PBS of glycans 4, 5, 7, 8, 9, and 11. During the automated experiment, small aliquots (2–3 μL) of the sugar stocks were added to the cell containing the lectin. Curve fitting to a single binding site model was performed with the MicroCal Origin 7 software.
Isothermal titratrion calorimetry (ITC). Isothermal Titration Calorimetry experiments were performed using MicroCal PEAQ-ITC calorimeter. Samples containing 100-200 µM of Gal-4N in PBS (50 mM sodium phosphate pH 7.4, 300 mM NaCl) were titrated with stocks of 3-10 mM in PBS of glycans A type 1, A type 2, A type 6, B type 1, B type 2 and B type 6. During the automated experiment, small aliquots (2-3 µL) of the sugar stocks were added to the cell containing the lectin. The association constants and the thermodynamic profile of the binding was calculated from the fitting of the titration data to a single binding site model.

[3] = molecular target: T1, N-terminal CRD of hGalectin-4 (Gal-4N); test: 1H-15N HSQC NMR-based titrations (chemical shift perturbation) of 15N-labeled Gal-4N; conditions: for Kd: HSQC NMR-based titration, 50 μM 15N-labeled lectin, 298 K, read-out: KD (μM) (NMR)
Method: The molecular recognition event was also analyzed from the perspective of the lectin. Thus, a chemical shift perturbation (CSP) analysis of the changes produced in the ^1H-^15N HSQC spectra recorded for ^15N-labeled Gal-4N upon addition of the different ligands was carried out. This analysis required the NH backbone NMR assignment of the lectin signals, following well-established triple resonance 3D NMR methods (see Materials and methods and Supplementary Information). The assignment protocol allowed assigning 80% of the NH backbone resonances. In addition to the ligands shown in Scheme 1, the corresponding non-fucosylated analogs and the H antigens (devoid of the terminal Gal/GalNAc moieties, see Supplementary Information), as well as lactose, were also employed. Thus, a full comparative analysis on the monosaccharide-specific effects on the lectin CSP was achieved.
The total volume for the NMR samples was 500/μl. The lectin was in phosphate-buffered saline (50 mM sodium phosphate, 150 mM NaCl, pH 7.4), either in D2O or 90:10 H2O:D2O depending on the NMR experiment. The pH was adjusted with the required amount of NaOH and HCl or NaOD and DCl.
experiments were acquired using an 800 MHz Bruker spectrometer with a cryoprobe (Bruker, Billerica, MA, United States). The samples were prepared using 50 μM of the ^15N-labeled lectin in the corresponding buffer in a 90:10 H2O:D2O ratio. The experiments were performed at 298 K. Six to nine points were recorded for each ligand and CSP and KD were calculated using CcpNmr Analysis 2.4.2.

| SMILES | STD% ([1]; 1H-residue H1 Fuc) [%] | STD-AF ([1]; 1H-residue H1 Fuc) | STD% ([1]; 1H-residue H1Galα) [%] | STD-AF ([1]; 1H-residue H1Galα) | STD% ([1]; 1H-residue H1Galβ) [%] | STD-AF ([1]; 1H-residue H1Galβ) | STD% ([1]; 1H-residue H3Galβ) [%] | STD-AF ([1]; 1H-residue H3Galβ) | STD% ([1]; 1H-residue H4Galβ) [%] | STD-AF ([1]; 1H-residue H4Galβ) | STD% ([1]; 1H-residue H5Galβ) [%] | STD-AF ([1]; 1H-residue H5Galβ) | STD% ([1]; 1H-residue MetFuc) [%] | STD-AF ([1]; 1H-residue MetFuc) | -TΔS (kcal mol^–1) (ITC) [2] | ΔG (kcal mol^–1) (ITC) [2] | ΔH (kcal mol^–1) (ITC) [2] | Kd [2] [µM] | Kd [3] [µM] | further results |
| --- | --- | --- | --- | --- | --- | --- | --- | --- | --- | --- | --- | --- | --- | --- | --- | --- | --- | --- | --- | --- |
| CC(=O)NC1C(O)OC(CO)C(OC2OC(CO)C(O)C(OC3OC(CO)C(O)C(O)C3O)C2OC2OC(C)C(O)C(O)C2O)C1O (stereo not shown) [B type-2 (tetra)] | 16 | 0.0024 | 73 | 0.0108 | 59 | 0.0088 | 36 | 0.0054 | 55 | 0.0081 | 100 | 0.0148 | 16 | 0.0023 | 3.8 | −5.5 | −9.3 | 88 | 190 | STD% ([1]; 1H-residue H1GlcNAc): 24%; STD-AF ([1]; 1H-residue H1GlcNAc): 0.0035; STD% ([1]; 1H-residue H3GlcNAc): 36%; STD-AF ([1]; 1H-residue H3GlcNAc): 0.0054; STD% ([1]; 1H-residue H4Galα): 18%; STD-AF ([1]; 1H-residue H4Galα): 0.0027; STD-AF ([1]; 1H-residue NHAcGlcNAc (B type 1: first of two lines)): 0.0035 |
| CC1OC(OC2C(OC3C(CO)OC(O)C(O)C3O)OC(CO)C(O)C2OC2OC(CO)C(O)C(O)C2O)C(O)C(O)C1O (stereo not shown) [B type-6 (tetra)] | 28 | 0.0105 | 74 | 0.0276 | 80 | 0.0298 | 29 | 0.0108 | 82 | 0.0307 | 100 | 0.0374 | 20 | 0.0074 | 6.4 | −5.9 | −12.3 | 51 | 60 | STD% ([1]; 1H-residue H2Galα): 38%; STD-AF ([1]; 1H-residue H2Galα): 0.0142; STD% ([1]; 1H-residue H2Galβ): 34%; STD-AF ([1]; 1H-residue H2Galβ): 0.0129; STD% ([1]; 1H-residue H2Glca / H2Glcα): 39%; STD-AF ([1]; 1H-residue H2Glca / H2Glcα): 0.0146; STD% ([1]; 1H-residue H2Glcb / H2Glcβ): 36%; STD-AF ([1]; 1H-residue H2Glcb / H2Glcβ): 0.0135; STD% ([1]; 1H-residue H3Glcb / H3Glcβ): 46%; STD-AF ([1]; 1H-residue H3Glcb / H3Glcβ): 0.0172; STD% ([1]; 1H-residue H5Glcβ): 44%; STD-AF ([1]; 1H-residue H5Glcβ): 0.0163; binding enthalpy [2]: -12.3 kcal/mol; increased affinity of type-6 vs corresponding type-2 antigen ([2]; Glc vs GlcNAc at reducing end, β1–4 linked): two-fold; fold difference in affinity of the best binder ([2]; among tetrasaccharides of Figure 6 (ITC)): 5 fold; fold range of NMR-based binding affinities, best vs worse binder ([3]; B-type 6 vs A-type 4): 20 fold |

From article PMC8097242, “Galectin-4 N-Terminal Domain: Binding Preferences Toward A and B Antigens With Different Peripheral Core Presentations” (Frontiers in Chemistry, 2021)
